According to patent publication US8008329B2 (Dong Wha Pharmaceutical Co., Ltd., priority 2008, dated 2011):
Marks after values point to notes of the source that are not given here.

Test system: osteoclast differentiation
Assay: Osteoclast differentiation in co-culture of mouse bone marrow cells and ST2 cells, TRAP staining (Examples 8-9)
Format: cell-based
Details: for % number of osteoclast (vs. solvent control group): 0.1 μM each, day 7; for activity at 0.1 µM: Mus musculus, Osteoclast, 168 h, Individual treatment (compounds), day 7, read-out: % number of osteoclast (vs. solvent control group)
In short: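 Readout was TRAP-positive multinucleated (≥6 nuclei) cells on day 7, reported as % of 0.1% DMSO control, mean±SD of 4 wells. Cells were mouse (male ddY) bone marrow plus ST2 co-cultures driven by 10^−8 M vitamin D3/dexamethasone. Benzamidines, alendronic acid or risedronic acid were added at 0.1 μM alone or combined, with media renewed days 3 and 5.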

[1] = Combination treatment (alendronic acid + compounds)
[2] = Combination treatment (risedronic acid + compounds)

Compound	% number of osteoclast (vs. solvent control group) [1]	% number of osteoclast (vs. solvent control group) [2]	activity at 0.1 µM [%]
COCCN(CCOC)c1nc(-c2ccc(OCCCCCOc3ccc(C(=N)NO)cc3)cc2)c(CCN2CCOCC2)s1 [Compound 271, N-hydroxy-4-(5-{4-[2-[bis-(2-methoxy-ethyl)-amino]-5-(2-morpholin-4-yl-ethyl)-thiazol-4-yl]-phenoxy}-pentyloxy)-benzamidine]	13 ± 3.7^ab %	16 ± 2.9^ac %	30 ± 5.3
N=C(NO)c1ccc(OCCCCCOc2ccc(-c3nc(N4CCOCC4)sc3C3CCCC3)cc2)cc1 [Compound 172, N-hydroxy-4-{5-[4-(5-cyclopentyl-2-morpholin-4-yl-1,3-thiazol-4-yl)phenoxy]pentyloxy}-benzamidine]	33 ± 5.3^ab %	26 ± 5.1^a %	57 ± 5.1
CCCNc1nc(-c2ccc(OCCCCCOc3ccc(C(=N)NO)cc3)cc2)c(CC2CCCC2)s1 [Compound 111, N-hydroxy-4-{5-[4-(5-cyclopentylmethyl-2-propylamino-1,3-thiazol-4-yl)phenoxy]pentyloxy}-benzamidine]	51 ± 6.0%	32 ± 5.2^ac %	76 ± 12.2
Cc1sc(N(C)Cc2ccccc2)nc1-c1ccc(OCCCCCOc2ccc(C(=N)NO)cc2)cc1 [Compound 125, N-hydroxy-4-{5-(4-[2-(benzyl-methyl-amino)-5-methyl-1,3-thiazol-4-yl]phenoxy)pentyloxy}-benzamidine]	43 ± 3.3^ab %	21 ± 9.0^ac %	66 ± 4.4
CCNc1nc(-c2ccc(OCCCCCOc3ccc(C(=N)NO)cc3)cc2)c(CC)s1 [Compound 97, N-hydroxy-4-{5-[4-(5-ethyl-2-ethylamino-1,3-thiazol-4-yl)phenoxy]pentyloxy}-benzamidine]	30 ± 5.7^ab %	13 ± 4.3^ac %	57 ± 5.2
Cc1sc(NC(=N)N)nc1-c1ccc(OCCCCCOc2ccc(C(=N)NO)cc2)cc1 [Compound 59, N-hydroxy-4-{5-[4-(2-guanidino-5-methyl-1,3-thiazol-4-yl)phenoxy]pentyloxy}-benzamidine]	34 ± 2.2^ab %	33 ± 5.1^ac %	55 ± 6.5
Cc1nc(-c2ccc(OCCCCCOc3ccc(C(=N)NO)cc3)cc2)c(CCN2CC(C)OC(C)C2)s1 (stereo not drawn) [Compound 227, N-hydroxy-4-[5-(4-{5-[2-(2,6-dimethyl-morpholin-4-yl)-ethyl]-2-methyl-thiazol-4-yl}-phenoxy)-pentyloxy]-benzamidine]	24 ± 5.0^ab %	17 ± 4.4^ac %	42 ± 4.6
N=C(NO)c1ccc(OCCCCCOc2ccc(-c3nc(-c4ccccc4)sc3N)cc2)cc1 [Compound 330, N-hydroxy-4-{5-[4-(5-amino-2-phenyl-thiazol-4-yl)-phenoxy]-pentyloxy}-benzamidine]	23 ± 3.9^ab %	12 ± 2.4^ac %	46 ± 4.7
CN(Cc1cccnc1)c1nc(-c2ccc(OCCCCCOc3ccc(C(=N)NO)cc3)cc2)c(CC2CCCC2)s1 [Compound 147, N-hydroxy-4-[5-(4-{5-cyclopentylmethyl-2-[methyl-(pyridin-3-ylmethyl)amino]-1,3-thiazol-4-yl}phenoxy)pentyloxy]-benzamidine]	31 ± 3.2^ab %	14 ± 3.0^ac %	46 ± 4.1
Cc1nc(-c2ccc(OCCCCCOc3ccc(C(=N)NO)cc3)cc2)c(CCN2CCCCC2)s1 [Compound 216, N-hydroxy-4-(5-{4-[2-methyl-5-(2-piperidin-1-yl-ethyl)-thiazol-4-yl]-phenoxy}-pentyloxy)-benzamidine]	72 ± 13.0%	48 ± 7.8^ac %	70 ± 5
CCCNc1nc(-c2ccc(OCCCCCOc3ccc(C(=N)NO)cc3)cc2)c(CC)s1 [Compound 98, N-hydroxy-4-{5-[4-(5-ethyl-2-propylamino-1,3-thiazol-4-yl)phenoxy]pentyloxy}-benzamidine]	29 ± 1.6^ab %	11 ± 3.2^ac %	47 ± 3.2
CC(C)c1nc(-c2ccc(OCCCCCOc3ccc(C(=N)NO)cc3)cc2)c(CCNCCCn2ccnc2)s1 [Compound 244, N-hydroxy-4-[5-(4-{5-[2-(3-imidazol-1-yl-propylamino)-ethyl]-2-isopropyl-thiazol-4-yl}-phenoxy)-pentyloxy]-benzamidine]	19 ± 3.3^ab %	11 ± 1.7^ac %	46 ± 2.9
N=C(NO)c1ccc(OCCCCCOc2ccc(-c3nc(CN4CCCCC4)sc3CCN3CCOCC3)cc2)cc1 [Compound 276, N-hydroxy-4-(5-{4-[5-(2-morpholin-4-yl-ethyl)-2-piperidin-1-yl-methyl-thiazol-4-yl]-phenoxy}-pentyloxy)-benzamidine]	21 ± 2.9^b %	11 ± 3.1^c %	41 ± 12.1
CN(Cc1ccncc1)c1nc(-c2ccc(OCCCCCOc3ccc(C(=N)NO)cc3)cc2)c(CN2CCOCC2)s1 [Compound 309, N-hydroxy-4-(5-{4-[2-(methyl-pyridin-4-ylmethyl-amino)-5-morpholin-4-ylmethyl-thiazol-4-yl]-phenoxy}-pentyloxy)-benzamidine]	13 ± 5.1^ab %	8 ± 3.0^ac %	50 ± 6.1
N=C(NO)c1ccc(OCCCCCOc2ccc(-c3nc(C4CCCCC4)sc3CCNCCN3CCOCC3)cc2)cc1 [Compound 248, N-hydroxy-4-[5-(4-{2-cyclohexyl-5-[2-(2-morpholin-4-yl-ethylamino)-ethyl]-thiazol-4-yl}-phenoxy)-pentyloxy]-benzamidine]	33 ± 5.6^b %	27 ± 4.9^ac %	49 ± 8.7
CNC(=O)c1sc(N)nc1-c1ccc(OCCCCCOc2ccc(C(=N)NO)cc2)cc1 [Compound 285, N-hydroxy-4-{5-[4-(2-amino-5-methylcarbamoyl-thiazol-4-yl)-phenoxy]-pentyloxy}-benzamidine]	53 ± 0.9%	40 ± 3.9^ac %	70 ± 8
